# Laboratory results as given in US20150203498A1, “INHIBITORS OF PHOSPHODIESTERASE 10 ENZYME” (Janssen Pharmaceutica NV, priority 2012, published 2015).
# “And” between values parts separate entries of the source, which are not always exact repeats. Equal entries are not always repeated. Where two headings read alike, the source gives them in different places.
# Tests used:
# plasma proteins = test: Plasma protein binding by equilibrium dialysis; type: in vitro ADME, human; details: human plasma; for Free fraction, Average per subject: average of duplicate per subject; for Free fraction: single determinations, subjects 1-3 in duplicate, equilibrium dialysis 4 h, 37° C.; for Concentration dependency in the plasma protein binding: within the concentration range tested
# Experimental: (§1) The plasma protein binding and blood distribution was investigated in healthy human subjects. Fresh blood was collected and centrifugated (approximately 1700 g for 10 min, room temperature, Hettich Rotixa AP centrifuge). The experiment was started within 4 hours after blood collection.
# (§2) Individual blank plasma samples from three healthy male subjects, tested in duplicate, were fortified with compound la or compound lb at different concentrations (see Table 5). Plasma samples were spiked with 10 μl spike solution per ml of sample (1% ethanol (v/v)).
# (§3) Fortified plasma was subjected to equilibrium dialysis (ED), for 4 h against a 0.067 M phosphate buffer, pH 7.17 at 37° C. in a Dianorm system with identical macro-1 Teflon cells and Spectra/Por® RC 2 dialysis membranes (MW cut-off 12-14 kDa). After dialysis, the contents of the two compartments of the dialysis cells were collected separately. The buffer samples were diluted with 1 mL of 5% Bovine Serum Albumin in a Phosphate buffer 0.05M, pH 7.5.
# (§4) The plasma samples (before and after equilibrium dialysis) and buffer samples were analysed for compound la or compound lb using a qualified chiral LC-MS/MS assay on a API4000 mass spectrometer (Applied Biosystems).
# (§5) The fraction of the unbound test compound (fu) was calculated as the ratio of the unbound concentration (Cu) in the buffer compartment to the total concentration (CED) in the protein compartment of the dialysis cells. The percentage of the free test compound was calculated as […]
# [1] = Plasma protein binding by equilibrium dialysis; type: in vitro ADME, human; details: male, human, plasma, pH 7.17, human plasma
# Experimental: as §1, §2, §3, §4, §5
# hPDE10A2 = biological target: T1, hPDE10A2 (Homo sapiens, UniProt Q9Y233); test: In vitro assay PDE10A, human recombinant enzyme (SPA, 3H-cAMP); type: biochemical; details: -log IC50 expressed in mol/L; 60 nM cAMP; read-out: PDE10A2 pIC50 - human enzyme (converted)
# T1 construct: made in house; host or cells: Sf9 insect cells (baculovirus)
# Experimental: (§6) Human or rat recombinant PDE10A (hPDE10A2 or rPDE10A2) was expressed in Sf9 cells using a recombinant hPDE10A or rPDE10A baculovirus construct. Cells were harvested after 48 h of infection and the hPDE10A or rPDE10A protein was purified by metal chelate chromatography on Ni-sepharose 6FF. Tested compounds were dissolved and diluted in 100% DMSO to a concentration 100 fold of the final concentration in the assay. Compound dilutions (0.4 μl) were added in 384 well plates to 20 μl of incubation buffer (50 mM Tris pH 7.8, 8.3 mM MgCl2, 1.7 mM EGTA). 10 μl of hPDE10A or rPDE10A enzyme in incubation buffer was added and the reaction was started by addition of 10 μl substrate to a final concentration of 60 nM cAMP and 0.008 μCi ^3H-cAMP. The reaction was incubated for 60 min. at RT. After incubation, the reaction was stopped with 20 μl of stop solution consisting of 17.8 mg/ml PDE SPA (scintillation proximity assay) beads. After sedimentation of the beads during 30 min. the radioactivity was measured in a Perkin Elmer Topcount scintillation counter and results were expressed as cpm. For blanc values the enzyme was omitted from the reaction and replaced by incubation buffer. Control values were obtained by addition of a final concentration of 1% DMSO instead of compound. A best fit curve was fitted by a minimum sum of squares method to the plot of % of control value substracted with blanc value versus compound concentration and the half maximal inhibitory concentration (IC50) value was derived from this curve.
# rPDE10A2 = biological target: T2, rPDE10A2 (Rattus norvegicus, UniProt Q9QYJ6); test: In vitro assay PDE10A, rat recombinant enzyme (SPA, 3H-cAMP); type: biochemical; details: -log IC50 expressed in mol/L; 60 nM cAMP; read-out: PDE10A2 pIC50 - rat enzyme (converted)
# T2 construct: made in house; host or cells: Sf9 insect cells (baculovirus)
# T2 sequence (Q9QYJ6 1-794): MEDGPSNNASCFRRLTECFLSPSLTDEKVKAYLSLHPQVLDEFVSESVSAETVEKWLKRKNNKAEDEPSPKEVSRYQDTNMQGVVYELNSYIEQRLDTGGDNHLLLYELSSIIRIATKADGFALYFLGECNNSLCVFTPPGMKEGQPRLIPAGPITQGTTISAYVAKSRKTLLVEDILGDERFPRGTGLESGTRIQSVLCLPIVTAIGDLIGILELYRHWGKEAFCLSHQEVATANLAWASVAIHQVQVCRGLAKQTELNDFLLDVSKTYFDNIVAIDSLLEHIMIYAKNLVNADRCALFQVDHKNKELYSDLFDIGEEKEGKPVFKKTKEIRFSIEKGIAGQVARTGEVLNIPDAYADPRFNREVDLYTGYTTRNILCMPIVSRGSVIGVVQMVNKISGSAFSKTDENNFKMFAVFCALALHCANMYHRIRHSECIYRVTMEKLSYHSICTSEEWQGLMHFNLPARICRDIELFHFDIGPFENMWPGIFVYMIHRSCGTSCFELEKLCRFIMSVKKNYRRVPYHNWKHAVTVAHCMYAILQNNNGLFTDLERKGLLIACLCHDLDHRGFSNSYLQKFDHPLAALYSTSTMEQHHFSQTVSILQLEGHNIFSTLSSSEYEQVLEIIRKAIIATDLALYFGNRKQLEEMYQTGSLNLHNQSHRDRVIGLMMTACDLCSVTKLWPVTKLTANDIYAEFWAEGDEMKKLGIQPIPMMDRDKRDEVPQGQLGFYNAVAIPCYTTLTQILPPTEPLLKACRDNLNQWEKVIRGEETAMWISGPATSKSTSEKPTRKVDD
# Experimental: as §6
# [2] = test system: apomorphine-induced stereotypy; test: Apomorphine-induced stereotypy in rats (APO); type: in vivo, rat; details: apomorphine 1.0 mg/kg i.v.; for ED50: Rattus norvegicus
# Experimental: Apomorphine (1.0 mg/kg, i.v.)-induced stereotypy (compulsive sniffing, licking, chewing) was scored every 5 min. over the first hour after injection of apomorphine, following a 1 hour interval pre-treatment with the test compound. The score system was: (3) pronounced, (2) moderate, (1) slight, and (0) absent. Criteria for drug-induced inhibition of stereotypy: fewer than 6 scores of 3 (0.16% false positives), fewer than 6 scores of 2 (0.0% false positives), or fewer than 7 scores of 1 (0.81% false positives).
# [3] = Pharmacokinetics of oral microdose in healthy subjects; type: in vivo, human; details: single oral dose of 100 μg
# Source text: The pharmacokinetics of an oral microdose of compound 1 according to the invention and compound 1 of WO2011/051342 was studied by a single-dose, open-label, parallel-group, randomized pharmacokinetic (PK) study. Each treatment group consisted of 6 subjects (healthy men between 18 to 55 years with a body mass index (BMI) between 18 and 30 kg/m^2 (inclusive) and body weight not less than 50 kg). Subjects were randomized to receive either compound 1 of WO2011/051342 or compound 1 (according to the invention) treatment.
# Compound 1 of WO2011/051342 and compound 1 according to the invention were supplied as a 0.1 mg/mL oral solution containing HP-β-CD and citric acid in purified water. The pH of the solution was adjusted to pH 2.0 by the use of hydrochloric acid. Subjects were admitted to the investigational site on Day -1. Following an overnight fast of at least 10 hours, subjects received a single oral aqueous solution of […] of compound 1 of WO2011/051342 or compound 1 according to the invention, with 240 mL of noncarbonated water as per randomization in the morning of Day 1 between 7:00 AM and 10:30 AM. Drinks were not allowed from 1 hour prior until 1 hour after drug administration. Blood samples were collected at specified time points to measure compound 1 of WO2011/051342 or compound 1 (according to the invention) plasma concentrations. Subjects were discharged on Day 3 after collecting the 48-hour PK sample. Subjects returned to the clinical unit on the morning of Day 4 for the 72-hour PK blood sampling.
# Venous blood samples of 6 mL for the measurement of compound 1 of WO2011/051342 or compound 1 according to the invention plasma concentrations were collected at specified time points.
# Plasma samples were analyzed to determine concentrations of compound 1 of WO2011/051342 or compound 1 according to the invention using a qualified liquid chromatography/mass spectrometry/mass spectrometry (LC-MS/MS) method.
# Pharmacokinetic analyses were performed for all subjects' data who received a dose of compound 1 of WO2011/051342 and compound 1 according to the invention. Plasma concentrations versus time profiles were plotted for each subject. Mean concentration versus time profiles were plotted for each compound, based on planned blood sampling times. Descriptive statistics, including arithmetic mean, standard deviation, CV, geometric mean, median, minimum, and maximum were calculated for the plasma concentrations at each sampling time and for all PK parameters of compound 1 of WO2011/051342 and compound 1 according to the invention.
# [4] = average of duplicate per subject, read-out: Free fraction, Average per subject
# [5] = single determinations, subjects 1-3 in duplicate, equilibrium dialysis 4 h, 37° C., read-out: Free fraction
# [6] = iv, 1 hour pre-treatment with test compound, dose at which 50% of animals show the effect
# [7] = male, human, plasma, 100 ug, fasted, mean
# T1 sequence (Q9Y233 267-1055): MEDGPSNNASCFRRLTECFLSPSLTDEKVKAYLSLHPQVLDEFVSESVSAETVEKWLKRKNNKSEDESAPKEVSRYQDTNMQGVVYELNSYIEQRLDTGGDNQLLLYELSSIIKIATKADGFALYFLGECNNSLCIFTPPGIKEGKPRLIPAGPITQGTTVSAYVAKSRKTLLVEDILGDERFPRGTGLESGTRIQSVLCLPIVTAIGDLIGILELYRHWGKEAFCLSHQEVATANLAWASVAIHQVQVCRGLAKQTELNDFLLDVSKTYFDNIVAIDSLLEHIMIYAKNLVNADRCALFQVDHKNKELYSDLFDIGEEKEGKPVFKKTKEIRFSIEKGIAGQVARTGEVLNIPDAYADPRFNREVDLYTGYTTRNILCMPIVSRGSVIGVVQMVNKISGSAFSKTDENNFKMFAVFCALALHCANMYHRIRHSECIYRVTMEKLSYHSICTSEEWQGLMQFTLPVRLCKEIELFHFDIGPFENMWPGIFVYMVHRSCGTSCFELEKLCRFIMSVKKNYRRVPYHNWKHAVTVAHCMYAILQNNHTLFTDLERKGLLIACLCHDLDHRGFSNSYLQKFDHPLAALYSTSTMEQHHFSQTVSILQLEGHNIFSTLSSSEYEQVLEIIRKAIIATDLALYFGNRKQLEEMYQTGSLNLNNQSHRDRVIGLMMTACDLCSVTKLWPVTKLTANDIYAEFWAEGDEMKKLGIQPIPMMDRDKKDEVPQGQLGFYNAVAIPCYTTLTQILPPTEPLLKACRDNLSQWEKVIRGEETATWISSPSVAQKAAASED
SMILES,melting point,Average percentage of free compound in plasma (plasma proteins; 0.1 μg/ml),"Free fraction, Average per subject (plasma proteins; 0.1 μg/ml)",Average percentage of free compound in plasma (plasma proteins; 13 μg/ml),"Free fraction, Average per subject (plasma proteins; 13 μg/ml)",Concentration dependency in the plasma protein binding (plasma proteins),IC50 (hPDE10A2),IC50 (rPDE10A2),Free fraction (plasma proteins; 0.1 μg/ml),Free fraction (plasma proteins; 13 μg/ml),"ED50 [2, 6]",also measured
"COCC(O)c1ccc(-c2c(C)nc3c(N4CCOCC4)ccnn23)cn1 (stereo not drawn) [Compound 1, 2-Methoxy-1-[5-(2-methyl-8-morpholin-4-ylimidazo[1,2-b]pyridazin-3-yl)pyridin-2-yl]ethanol]",137.2 °C,–,–,–,–,–,64.6 nM,55 nM,–,–,–,"ED50 ([2]; compound dosed orally, 1 hour pre-treatment): 1 mg/kg; Tmax ([3]; male, human, plasma, 100 ug, fasted, Median (Min-Max)): 0.64 h; AUC(0-inf) [3, 7]: 2.64 ng·h/mL; AUC(0-t) [3, 7]: 2.61 ng·h/mL; Cmax [3, 7]: 0.758 ng/mL; Vd/F [3, 7]: 333 ± 117 L; half-life [3, 7]: 5.7 h; Cl/F, fold lower compared to compound 1 of WO2011/051342 [3]: approximately 3.8 fold; Vd/F, fold lower compared to compound 1 of WO2011/051342 [3]: approximately 3.5 fold; CL/F ([3]; fasted, mean): 47.9 ± 24.6 L/h and 47.9 L/h; λz ([3]; fasted, mean): 0.148 h⁻¹"
"COCC(O)c1ccc(-c2c(C)nc3c(N4CCOCC4)nccn23)cn1 (stereo not drawn) [Compound 2, 2-Methoxy-1-[5-(2-methyl-8-morpholin-4-ylimidazo[1,2-a]pyrazin-3-yl)pyridin-2-yl]ethanol]",106.9 °C,–,–,–,–,–,263 nM,–,–,–,0.31 mg/kg,–
"Cc1nc2c(N3CCOCC3)ccnn2c1-c1ccc(C2(O)CCOCC2)nc1 [Compound 3, 4-[5-(2-Methyl-8-morpholin-4-ylimidazo[1,2-b]pyridazin-3-yl)pyridin-2-yl]tetrahydro-2H-pyran-4-ol]",189.2 °C,–,–,–,–,–,27.5 nM,–,–,–,0.31 mg/kg,–
"Cc1nc2c(N3CCOCC3)nccn2c1-c1ccc(C2(O)CCOCC2)nc1 [Compound 4, 4-[5-(2-Methyl-8-morpholin-4-ylimidazo[1,2-a]pyrazin-3-yl)pyridin-2-yl]tetrahydro-2H-pyran-4-ol]",181.6 °C,–,–,–,–,–,112 nM,–,–,–,0.31 mg/kg,–

# Second part, led by results:
melting point,Average percentage of free compound in plasma (plasma proteins; 0.1 μg/ml),"Free fraction, Average per subject (plasma proteins; 0.1 μg/ml)",Average percentage of free compound in plasma (plasma proteins; 13 μg/ml),"Free fraction, Average per subject (plasma proteins; 13 μg/ml)",Concentration dependency in the plasma protein binding (plasma proteins),IC50 (hPDE10A2),IC50 (rPDE10A2),SMILES,Free fraction (plasma proteins; 0.1 μg/ml),Free fraction (plasma proteins; 13 μg/ml),"ED50 [2, 6]",also measured
134.9 °C,48.3%,48.5% and 48.3%,45.5%,45.4% and 46.2%,No relevant concentration dependency,75.9 nM,47.9 nM,"COCC(O)c1ccc(-c2c(C)nc3c(N4CCOCC4)ccnn23)cn1 (single isomer, unassigned) [Compound 1a]",50.1% and 47.6% and 48.9% and 47.3%,46.1% and 46.5% and 46.0% and 43.9% and 45.6%,1.2 mg/kg,"fraction unbound at 4 h, 0.1 μg/ml [1, 4]: 0.481; fraction unbound at 4 h, 0.1 μg/ml [1, 5]: 0.468; fraction unbound at 4 h, 13 μg/ml [1, 4]: 0.448; fraction unbound at 4 h, 13 μg/ml [1, 5]: 0.446; fraction unbound at 4 h ([1]; 0.1 and 13 μg/ml pooled, three subjects in duplicate, read-out: Free fraction, Average (S.D.) (n = 12)): 0.469"
135.7 °C,53.4%,54.0% and 56.3% and 50.0%,50.9%,52.6% and 49.6% and 50.5%,No relevant concentration dependency,60.3 nM,50.1 nM,"COCC(O)c1ccc(-c2c(C)nc3c(N4CCOCC4)ccnn23)cn1 (single isomer, unassigned) [Compound 1b]",55.2% and 57.4% and 46.9% and 53.1% and 54.9%,52.7% and 46.6% and 51.4% and 49.7% and 51.9% and 53.3%,–,"Free fraction, Average (S.D.) (n = 12) (plasma proteins; 0.1 and 13 μg/ml pooled, three subjects in duplicate): 52.2 (3.2) %; APO ED50 ([2]; 1 hour pre-treatment with test compound, dose at which 50% of animals show the effect): 1.2 mg/kg"
